What was measured:
[1] = test system: mRNA expressed from the genes (A) to (D) in rat liver; assay: Behavior of genes (mRNA expression level, oligo-DNA microarray) in rat liver after 28-day oral administration; assay type: in vivo; settings: for Behavior of gene caused by administration of chemical substance, Gene No. 4846 / Behavior of gene caused by administration of chemical substance, Gene No. 2026 / Behavior of gene caused by administration of chemical substance, Gene No. 4218 / Behavior of gene caused by administration of chemical substance, Gene No. 6182 / Behavior of gene caused by administration of chemical substance, Gene No. 5600: gene group (A); for Behavior of gene caused by administration of chemical substance, Gene No. 4846: Unigene No. Rn.144554; for Behavior of gene caused by administration of chemical substance, Gene No. 2026 / Behavior of gene caused by administration of chemical substance, Gene No. 4218: Unigene No. Rn.167075; for Behavior of gene caused by administration of chemical substance, Gene No. 6182: Unigene No. Rn.5834; for Behavior of gene caused by administration of chemical substance, Gene No. 5600: Unigene No. Rn.9836; for Behavior of gene caused by administration of chemical substance, Gene No. 1494 / Behavior of gene caused by administration of chemical substance, Gene No. 2045 / Behavior of gene caused by administration of chemical substance, Gene No. 2203: gene group (B); for Behavior of gene caused by administration of chemical substance, Gene No. 1494: Unigene No. Rn.1430; for Behavior of gene caused by administration of chemical substance, Gene No. 2045: Unigene No. Rn.19329; for Behavior of gene caused by administration of chemical substance, Gene No. 2203: Unigene No. Rn.21240; for Behavior of gene caused by administration of chemical substance, Gene No. 533 / Behavior of gene caused by administration of chemical substance, Gene No. 725 / Behavior of gene caused by administration of chemical substance, Gene No. 1163 / Behavior of gene caused by administration of chemical substance, Gene No. 4973 / Behavior of gene caused by administration of chemical substance, Gene No. 4095 / Behavior of gene caused by administration of chemical substance, Gene No. 1334 / Behavior of gene caused by administration of chemical substance, Gene No. 6620 / Behavior of gene caused by administration of chemical substance, Gene No. 6303 / Behavior of gene caused by administration of chemical substance, Gene No. 5878 / Behavior of gene caused by administration of chemical substance, Gene No. 1131 / Behavior of gene caused by administration of chemical substance, Gene No. 1562 / Behavior of gene caused by administration of chemical substance, Gene No. 1741 / Behavior of gene caused by administration of chemical substance, Gene No. 893 / Behavior of gene caused by administration of chemical substance, Gene No. 6026 / Behavior of gene caused by administration of chemical substance, Gene No. 154 / Behavior of gene caused by administration of chemical substance, Gene No. 1993 / Behavior of gene caused by administration of chemical substance, Gene No. 813 / Behavior of gene caused by administration of chemical substance, Gene No. 2494 / Behavior of gene caused by administration of chemical substance, Gene No. 2546 / Behavior of gene caused by administration of chemical substance, Gene No. 3776 / Behavior of gene caused by administration of chemical substance, Gene No. 3929 / Behavior of gene caused by administration of chemical substance, Gene No. 1119 / Behavior of gene caused by administration of chemical substance, Gene No. 6742 / Behavior of gene caused by administration of chemical substance, Gene No. 5634: gene group (C); for Behavior of gene caused by administration of chemical substance, Gene No. 533: Unigene No. Rn.106184; for Behavior of gene caused by administration of chemical substance, Gene No. 725: Unigene No. Rn.108075; for Behavior of gene caused by administration of chemical substance, Gene No. 1163: Unigene No. Rn.11766; for Behavior of gene caused by administration of chemical substance, Gene No. 4973: Unigene No. Rn.118529; for Behavior of gene caused by administration of chemical substance, Gene No. 4095: Unigene No. Rn.119024; for Behavior of gene caused by administration of chemical substance, Gene No. 1334 / Behavior of gene caused by administration of chemical substance, Gene No. 6620: Unigene No. Rn.120914; for Behavior of gene caused by administration of chemical substance, Gene No. 6303: Unigene No. Rn.123063; for Behavior of gene caused by administration of chemical substance, Gene No. 5878: Unigene No. Rn.143213; for Behavior of gene caused by administration of chemical substance, Gene No. 1131: Unigene No. Rn.144946; for Behavior of gene caused by administration of chemical substance, Gene No. 1562: Unigene No. Rn.14744; for Behavior of gene caused by administration of chemical substance, Gene No. 1741: Unigene No. Rn.1647; for Behavior of gene caused by administration of chemical substance, Gene No. 893: Unigene No. Rn.164817; for Behavior of gene caused by administration of chemical substance, Gene No. 6026: Unigene No. Rn.167685; for Behavior of gene caused by administration of chemical substance, Gene No. 154: Unigene No. Rn.185941; for Behavior of gene caused by administration of chemical substance, Gene No. 1993: Unigene No. Rn.18728; for Behavior of gene caused by administration of chemical substance, Gene No. 813: Unigene No. Rn.201760; for Behavior of gene caused by administration of chemical substance, Gene No. 2494: Unigene No. Rn.23969; for Behavior of gene caused by administration of chemical substance, Gene No. 2546: Unigene No. Rn.24561; for Behavior of gene caused by administration of chemical substance, Gene No. 3776: Unigene No. Rn.43232; for Behavior of gene caused by administration of chemical substance, Gene No. 3929: Unigene No. Rn.4620; for Behavior of gene caused by administration of chemical substance, Gene No. 1119: Unigene No. Rn.9757; for Behavior of gene caused by administration of chemical substance, Gene No. 6742: Unigene No. Rn.9779; for Behavior of gene caused by administration of chemical substance, Gene No. 5634: Unigene No. Rn.9862; for Behavior of gene caused by administration of chemical substance, Gene No. 5726: gene group (D), Unigene No. Rn.9939
Outline: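 Male F344 SPF rats, 5 weeks old, four per group, dosed by oral gavage once daily for 28 days with test chemical or matched-volume solvent. Liver total RNA profiled on oligo-DNA microarray. Change ≥1.5-fold or ≤1/1.5 versus vehicle counted as significant if its direction matched that seen with other carcinogens.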

[2] = test system: liver; settings: classification of the substance (Cr+/Cr−); cited from earlier work
[3] = test system: rodent; settings: classification of the substance (C+/C−); cited from earlier work
[4] = classification of the substance (M+/M−); cited from earlier work

ClC(Cl)C(Cl)(Cl)Cl [TS055, Pentachloroethane]
Behavior of gene caused by administration of chemical substance, Gene No. 4846 ([1]; mRNA vs vehicle control group): − | Behavior of gene caused by administration of chemical substance, Gene No. 2026 ([1]; mRNA vs vehicle control group): − | Behavior of gene caused by administration of chemical substance, Gene No. 4218 ([1]; mRNA vs vehicle control group): − | Behavior of gene caused by administration of chemical substance, Gene No. 6182 ([1]; mRNA vs vehicle control group): − | Behavior of gene caused by administration of chemical substance, Gene No. 5600 ([1]; mRNA vs vehicle control group): − | Behavior of gene caused by administration of chemical substance, Gene No. 1494 ([1]; mRNA vs vehicle control group): + | Behavior of gene caused by administration of chemical substance, Gene No. 2045 ([1]; mRNA vs vehicle control group): − | Behavior of gene caused by administration of chemical substance, Gene No. 2203 ([1]; mRNA vs vehicle control group): − | Behavior of gene caused by administration of chemical substance, Gene No. 533 ([1]; mRNA vs vehicle control group): + | Behavior of gene caused by administration of chemical substance, Gene No. 725 ([1]; mRNA vs vehicle control group): − | Behavior of gene caused by administration of chemical substance, Gene No. 1163 ([1]; mRNA vs vehicle control group): + | Behavior of gene caused by administration of chemical substance, Gene No. 4973 ([1]; mRNA vs vehicle control group): + | Behavior of gene caused by administration of chemical substance, Gene No. 4095 ([1]; mRNA vs vehicle control group): + | Behavior of gene caused by administration of chemical substance, Gene No. 1334 ([1]; mRNA vs vehicle control group): + | Behavior of gene caused by administration of chemical substance, Gene No. 6620 ([1]; mRNA vs vehicle control group): + | Behavior of gene caused by administration of chemical substance, Gene No. 6303 ([1]; mRNA vs vehicle control group): + | Behavior of gene caused by administration of chemical substance, Gene No. 5878 ([1]; mRNA vs vehicle control group): + | Behavior of gene caused by administration of chemical substance, Gene No. 1131 ([1]; mRNA vs vehicle control group): + | Behavior of gene caused by administration of chemical substance, Gene No. 1562 ([1]; mRNA vs vehicle control group): + | Behavior of gene caused by administration of chemical substance, Gene No. 1741 ([1]; mRNA vs vehicle control group): + | Behavior of gene caused by administration of chemical substance, Gene No. 893 ([1]; mRNA vs vehicle control group): + | Behavior of gene caused by administration of chemical substance, Gene No. 6026 ([1]; mRNA vs vehicle control group): + | Behavior of gene caused by administration of chemical substance, Gene No. 154 ([1]; mRNA vs vehicle control group): + | Behavior of gene caused by administration of chemical substance, Gene No. 1993 ([1]; mRNA vs vehicle control group): + | Behavior of gene caused by administration of chemical substance, Gene No. 813 ([1]; mRNA vs vehicle control group): + | Behavior of gene caused by administration of chemical substance, Gene No. 2494 ([1]; mRNA vs vehicle control group): + | Behavior of gene caused by administration of chemical substance, Gene No. 2546 ([1]; mRNA vs vehicle control group): + | Behavior of gene caused by administration of chemical substance, Gene No. 3776 ([1]; mRNA vs vehicle control group): + | Behavior of gene caused by administration of chemical substance, Gene No. 3929 ([1]; mRNA vs vehicle control group): + | Behavior of gene caused by administration of chemical substance, Gene No. 1119 ([1]; mRNA vs vehicle control group): + | Behavior of gene caused by administration of chemical substance, Gene No. 6742 ([1]; mRNA vs vehicle control group): + | Behavior of gene caused by administration of chemical substance, Gene No. 5634 ([1]; mRNA vs vehicle control group): + | Behavior of gene caused by administration of chemical substance, Gene No. 5726 ([1]; mRNA vs vehicle control group): + | Liver carcinogenicity [2]: Cr− | Carcinogenicity [3]: C+ | Mutagenicity by Ames test [4]: M−

Cl.Cl.Nc1ccc(N)cc1 [TS059, p-Phenylenediamine 2HCl]
Behavior of gene caused by administration of chemical substance, Gene No. 4846 [1]: − | Behavior of gene caused by administration of chemical substance, Gene No. 2026 [1]: − | Behavior of gene caused by administration of chemical substance, Gene No. 4218 [1]: − | Behavior of gene caused by administration of chemical substance, Gene No. 6182 [1]: − | Behavior of gene caused by administration of chemical substance, Gene No. 5600 [1]: − | Behavior of gene caused by administration of chemical substance, Gene No. 1494 [1]: − | Behavior of gene caused by administration of chemical substance, Gene No. 2045 [1]: − | Behavior of gene caused by administration of chemical substance, Gene No. 2203 [1]: − | Behavior of gene caused by administration of chemical substance, Gene No. 533 [1]: − | Behavior of gene caused by administration of chemical substance, Gene No. 725 [1]: − | Behavior of gene caused by administration of chemical substance, Gene No. 1163 [1]: − | Behavior of gene caused by administration of chemical substance, Gene No. 4973 [1]: + | Behavior of gene caused by administration of chemical substance, Gene No. 4095 [1]: + | Behavior of gene caused by administration of chemical substance, Gene No. 1334 [1]: + | Behavior of gene caused by administration of chemical substance, Gene No. 6620 [1]: + | Behavior of gene caused by administration of chemical substance, Gene No. 6303 [1]: − | Behavior of gene caused by administration of chemical substance, Gene No. 5878 [1]: − | Behavior of gene caused by administration of chemical substance, Gene No. 1131 [1]: − | Behavior of gene caused by administration of chemical substance, Gene No. 1562 [1]: + | Behavior of gene caused by administration of chemical substance, Gene No. 1741 [1]: + | Behavior of gene caused by administration of chemical substance, Gene No. 893 [1]: + | Behavior of gene caused by administration of chemical substance, Gene No. 6026 [1]: − | Behavior of gene caused by administration of chemical substance, Gene No. 154 [1]: + | Behavior of gene caused by administration of chemical substance, Gene No. 1993 [1]: + | Behavior of gene caused by administration of chemical substance, Gene No. 813 [1]: − | Behavior of gene caused by administration of chemical substance, Gene No. 2494 [1]: − | Behavior of gene caused by administration of chemical substance, Gene No. 2546 [1]: + | Behavior of gene caused by administration of chemical substance, Gene No. 3776 [1]: + | Behavior of gene caused by administration of chemical substance, Gene No. 3929 [1]: + | Behavior of gene caused by administration of chemical substance, Gene No. 1119 [1]: + | Behavior of gene caused by administration of chemical substance, Gene No. 6742 [1]: − | Behavior of gene caused by administration of chemical substance, Gene No. 5634 [1]: + | Behavior of gene caused by administration of chemical substance, Gene No. 5726 [1]: + | Liver carcinogenicity [2]: Cr− | Carcinogenicity [3]: C− | Mutagenicity by Ames test [4]: M+

Reference: patent US20110039721A1, “METHOD FOR PREDICTION ABOUT CARCINOGENICITY OF SUBSTANCE IN RODENT” (Chemicals Evaluation and Research Institute, priority 2007, published 2011)
